These results are taken from PubChem BioAssay (NCI).

Common to all, as to assay: NCI anticancer screen, dose series, 48 h
The subject of test [1] is UACC-257 melanoma.
Test [2] concerns NCI-H460 lung.
Test [3] relates to HL-60(TB) leukemia.
Test [4] concerns BT-549 breast.
Test [5] concerns NCI/ADR-RES ovarian.
Test [6] relates to HS 578T breast.
The test system of test [7] is MDA-MB-435.
The subject of test [8] is CCRF-CEM leukemia.
For test [9], the system named is NCI-H23 lung.
Test [10] relates to SR leukemia.

Several values for one entry are separate records, joined by “and”; a condition that tells them apart may be missing. Equal values may be shown once.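 96-well plates; 48 h exposure; 5 concentrations. Endpoints by linear interpolation between flanking doses. Not reached: highest tested concentration assigned. GI50 is the concentration that inhibits growth by half. TGI marks complete inhibition of growth.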 Some results are limits rather than exact numbers.

On to `O=C(O)C1C2C=CC(O2)C1C(=O)NCc1cccnc1` (stereo not drawn), for which the TGI in [1], in [2], in test [3], in [4], in [5] and in [6] was above 100 µM each time. The TGI in test [7], in test [8], in test [9] and in [10] was above 100 µM each time.

For the compound `COc1cc2c(Oc3ccc(NC(=O)C4(C(=O)Nc5ccc(F)cc5)CC4)cc3F)ccnc2cc1OCCCN1CCOCC1`, the GI50 in test [1] is 1.19 µM; in test [2] it was 0.521 µM and 0.575 µM; in test [3], 0.164 µM and 0.389 µM; in test [4], 1.82 µM and 2.78 µM; in test [5], 1.98 µM; in [6], 2.06 µM and 0.387 µM. Also, the GI50 was 0.694 µM in test [7]; 0.531 µM and 0.383 µM in test [8]; 0.383 µM and 0.511 µM in [9]; 0.932 µM and 0.583 µM in test [10]. The TGI in [1] is 2.78 µM; in test [2], 2.05 µM and 2.51 µM; in test [3] it was 2.02 µM and 2.34 µM; in [4], 3.93 µM and > 9.51 µM; in [5], above 10 µM; in test [7], 2.39 µM. In addition, the TGI in test [9] is 2.41 µM and > 10 µM; in test [10], 3.45 µM and 2.78 µM.

Turning to `O=CC(OC(=O)c1ccccc1)C(OC(=O)c1ccccc1)C(COC(c1ccccc1)(c1ccccc1)c1ccccc1)OC(=O)c1ccccc1` (stereo not drawn), the GI50 is 13.9 µM in test [1]; 17.1 µM in [2]; 3.25 µM in test [3]; 23.4 µM in test [4]; 19.3 µM in test [5]; 33.2 µM in test [6]. In addition, the GI50 in [7] was 12.8 µM; in test [8], 2.21 µM; in test [9] it was 15.4 µM; in test [10], 1.3 µM. Besides, the TGI in [1] was 34.4 µM; in [2] it was 37.8 µM; in test [3], 20.7 µM; in [4] it was above 100 µM; in test [5], 45.4 µM; in test [6], above 100 µM. The TGI in test [7] was 46.7 µM; in test [8] it was 7.26 µM; in test [9], 34.6 µM; in test [10] it was 4.03 µM.

As for `O=C(COc1ccc(/C=C2\Oc3ccc4ccccc4c3C2=O)cc1)c1ccc([N+](=O)[O-])cc1`, the GI50 was 18.9 µM in test [1]; 16.5 µM in [2]; 2.61 µM in test [3]; 11.1 µM in test [4]; 21.8 µM in test [5]; 18.5 µM in test [6]. Also, the GI50 was 12.2 µM in [7], 1.81 µM in test [8], 12.5 µM in test [9] and 0.0291 µM in [10]. Besides, the TGI in test [1] came to 58.5 µM; in test [2], 40.2 µM; in test [3], 16.2 µM; in [4], 26.4 µM; in test [5], 82.1 µM; in test [6], 57 µM. Further, the TGI in test [7] came to 29.1 µM; in test [8], 4.12 µM; in test [9] it was 29.4 µM; in test [10] it was 1.84 µM.

`C[C@@H](Nc1nc(N[C@H](C)C(F)(F)F)nc(-c2cccc(Cl)n2)n1)C(F)(F)F`: the GI50 in [1] is 51.4 µM; in test [2], 36.1 µM; in test [3], above 100 µM; in test [4], 37.9 µM; in [5], 32.9 µM; in [6] it was 26 µM. Besides, the GI50 in [7] is above 100 µM; in [8], above 100 µM; in [9], 54 µM; in [10], above 100 µM. For the same compound, the TGI in [1], in test [2], in test [3], in test [4], in test [5] and in test [6] was above 100 µM in each case. Moreover, the TGI in test [7], in [8], in test [9] and in test [10] was above 100 µM in each case.

`Cc1cccc(C(C)(C)C)c1NC(=O)C(C#N)C1=C(Cl)C(=O)c2ccccc2C1=O` (stereo not drawn): the TGI stood at 30.3 µM in test [1]; 38.5 µM in test [2]; 26 µM in [3]; 27.5 µM in [4]; 37.7 µM in test [5]; 52.5 µM in test [6]. Moreover, the TGI in test [7] is 30.6 µM; in test [8], 10.7 µM; in [9] it was 30.2 µM; in test [10], above 100 µM.

Take `Oc1ccc(NC(=S)Nc2ccccc2)cc1`: the GI50 in [1], in test [2], in [3], in test [4], in [5] and in test [6] was above 100 µM throughout. For the same compound, the GI50 in test [7], in test [8], in [9] and in test [10] was above 100 µM in each case. In addition, the TGI in [1], in test [2], in [3], in test [4], in test [5] and in [6] was above 100 µM each time. For the same compound, the TGI in test [7], in test [8], in test [9] and in test [10] was above 100 µM in each case.

For the compound `C[C@@H](O)[C@@H](C)Oc1nc(Nc2ccc(S(=N)(=O)C3CC3)cc2)ncc1C(F)(F)F` (stereo partly drawn), the GI50 is 0.0306 µM in test [1]; 0.0303 µM in test [2]; 0.0183 µM in [3]; 0.0274 µM in test [4]; 0.132 µM in test [5]; 0.0313 µM in test [6]. The GI50 in [7] was 0.0335 µM; in test [8] it was 0.0231 µM; in test [9] it was 0.0322 µM; in test [10], below 0.0122 µM. Also, the TGI in [1] was determined as 0.133 µM; in [2] it was 11.5 µM; in [3] it was 0.0544 µM; in test [4], 0.182 µM; in [5], 28.5 µM; in test [6], 7.96 µM. Besides, the TGI was 1.22 µM in test [7], 0.0621 µM in test [8], 0.318 µM in [9] and 0.0475 µM in [10].
